What was measured:
[1] = test system: Enterococcus faecium (VRE) ATCC #51559; assay: Microbial Time Kill Assay; format: cell-based; conditions: 150 ppm AFC, 15 second contact time
[2] = test system: Staphylococcus aureus ATCC #6538; assay: Microbial Time Kill Assay; format: cell-based; conditions: 150 ppm AFC, 15 second contact time
[3] = test system: Acinetobacter baumannii ATCC #19606; assay: Microbial Time Kill Assay; format: cell-based; conditions: 150 ppm AFC, 15 second contact time
[4] = test system: Candida albicans ATCC #10231; assay: Microbial Time Kill Assay; format: cell-based; conditions: 150 ppm AFC, 15 second contact time
Protocol: Fungicidal activity tests were performed using hypochlorous acid (140-150 ppm) against Candida albicans ATCC 10231 and Aspergillus niger ATCC 16404. Stock culture of Candida albicans ATCC 10231 and Aspergillus niger ATCC 16404 were grown and maintained on Malt Extract Agar at 30° C. […] All samples were serially diluted, plated out on Tryptic Soy Agar, incubated at 37° C. for 3 days and colonies forming units counted.

[5] = test system: Enterobacter aerogenes ATCC #51342; assay: Microbial Time Kill Assay; format: cell-based; conditions: 150 ppm AFC, 15 second contact time
[6] = test system: Klebsiella oxytoca ATCC #12833; assay: Microbial Time Kill Assay; format: cell-based; conditions: 150 ppm AFC, 15 second contact time
[7] = test system: Proteus mirabilis ATCC #43071; assay: Microbial Time Kill Assay; format: cell-based; conditions: 150 ppm AFC, 15 second contact time
[8] = test system: Serratia marcescens ATCC #14756; assay: Microbial Time Kill Assay; format: cell-based; conditions: 150 ppm AFC, 15 second contact time
[9] = test system: Streptococcus pyogenes ATCC #19615; assay: Microbial Time Kill Assay; format: cell-based; conditions: 150 ppm AFC, 15 second contact time
[10] = test system: Clostridium difficile (spores); assay: Endospore Time Kill Assay; format: cell-based; conditions: for Log Reduction / Vashe Log10 / Vashe Survivors / % Reduction (% Kill): ≤150 ppm AFC
[11] = test system: Pseudomonas aeruginosa ATCC 15442; assay: Bactericidal suspension test; format: cell-based
[12] = test system: Enterococcus faecium ATCC 10541; assay: Bactericidal suspension test; format: cell-based
[13] = test system: Mycobacterium avium ATCC 15769; assay: Mycobactericidal suspension test; format: cell-based
Protocol: (§1) Broth cultures of either M. terrae (ATCC 15755) and M. avium (ATCC 15769) were grown for up to 35 days at 35° C. […] The plates were incubated for 4-5 weeks at 35° C. and colonies counted.

[14] = test system: Mycobacterium terrae ATCC 15755; assay: Mycobactericidal suspension test; format: cell-based
Protocol: as §1

[15] = test system: Orthopoxvirus from vaccine; format: cell-based
Poliovirus Enterovirus 1 = format: cell-based
[16] = test system: Enterococcus faecium (VRE); assay: Carrier test; format: cell-based; conditions: <180 ppm, glass slide carriers
Salmonella choleraesuis = assay: Carrier test; format: cell-based; conditions: <180 ppm, glass slide carriers
[17] = Ocular irritation study (Draize); format: in vivo, New Zealand white rabbits; conditions: 0.1 ml, 689.5 ppm AFC, conjunctival sac; Draize scoring days 1, 2 and 3 post dose
Protocol: An eye irritation study was conducted on six healthy New Zealand white rabbits, free from evidence of ocular irritation and corneal abnormalities. The test article (0.1 ml hypochlorous acid, 689.5 ppm AFC) was placed into the conjunctival sac of one eye of each rabbit. The contralateral eye served as a control. The eyes were examined and scored by the Draize technique for any evidence of irritation or abnormalities of the cornea, on days 1, 2, and 3 post dose. The primary eye irritation score of each rabbit, each day was calculated. All eyes appeared normal at each observation period and there were no abnormal physical signs noted.

[18] = Dermal irritation study (Draize); format: in vivo, New Zealand white rabbits; conditions: 0.5 ml, 689.5 ppm AFC, intact and abraded site; Draize at 24 and 72 hours
Protocol: A skin irritation study was conducted on six healthy New Zealand white rabbits. The test article (0.5 ml hypochlorous acid, 689.5 ppm AFC) was applied to one intact and one abraded site on the clipped back of each rabbit. Skin reactions were evaluated by the Draize technique at 24 and 72 hours after dosing and the primary irritation index was calculated. There was no erythema or edema noted at any time period and there were no abnormal physical signs noted during the observation period.

[19] = Delayed dermal sensitization in guinea pig maximization test; format: in vivo; conditions: intradermal injection and occlusive patch; scored 24 and 48 hours after patch removal; solution 690 ppm AFC, hydrogel 500 ppm AFC
[20] = test system: Salmonella typhimuium (strains TA1535, TA1537, TA98 and TA100); assay: Bacterial mutagenicity; conditions: 241-252 ppm AFC, absence and presence of liver S9 fraction
[21] = hypochlorous acid 40-180 ppm, suspension test

OCl [hypochlorous acid]
% Reduction (% Kill) [1]: >99.999% | HOCl Solution Log10 [1]: ≤1 | HOCl Solution Survivors [1]: <10 | Log Reduction [1]: ≥5.20 | % Reduction (% Kill) [2]: >99.995% | HOCl Solution Log10 [2]: ≤1 | HOCl Solution Survivors [2]: <10 | Log Reduction [2]: ≥4.96 | % Reduction (% Kill) [3]: >99.999% | HOCl Solution Log10 [3]: ≤1 | HOCl Solution Survivors [3]: <10 | Log Reduction [3]: ≥5.15 | % Reduction (% Kill) [4]: >99.999% | HOCl Solution Log10 [4]: ≤1 | HOCl Solution Survivors [4]: <10 | Log Reduction [4]: ≥5.63 | % Reduction (% Kill) [5]: >99.999% | HOCl Solution Log10 [5]: ≤1 | HOCl Solution Survivors [5]: <10 | Log Reduction [5]: ≥5.43 | % Reduction (% Kill) [6]: >99.999% | HOCl Solution Log10 [6]: ≤1 | HOCl Solution Survivors [6]: <10 | Log Reduction [6]: ≥5.18 | % Reduction (% Kill) [7]: >99.999% | HOCl Solution Log10 [7]: ≤1 | HOCl Solution Survivors [7]: <10 | Log Reduction [7]: ≥5.40 | % Reduction (% Kill) [8]: >99.999% | HOCl Solution Log10 [8]: ≤1 | HOCl Solution Survivors [8]: <10 | Log Reduction [8]: ≥5.08 | % Reduction (% Kill) [9]: >99.999% | HOCl Solution Log10 [9]: ≤1 | HOCl Solution Survivors [9]: <10 | Log Reduction [9]: ≥5.53 | contact time after which pass was achieved [10, 21]: 5 min | Log Reduction ([10]; contact time 15 seconds): 3.15 | Vashe Log10 ([10]; contact time 15 seconds): 2.52 | Vashe Survivors ([10]; contact time 15 seconds): 330 | % Reduction (% Kill) ([10]; contact time 15 seconds, listed as HOCl solution): 99.93% | % Reduction (% Kill) ([10]; contact time 15 seconds, listed as hypochlorous acid solution): > 99.9% | % Reduction (% Kill) ([10]; contact time 5 minutes): >99.999% | Log Reduction ([10]; contact time 5 minutes): ≥5.69 | Vashe Log10 ([10]; contact time 5 minutes): ≤1 | Vashe Survivors ([10]; contact time 5 minutes): <10 | contact time after which pass was achieved [11, 21]: 15 s | Test Result (Log reduction) ([11]; in 5 min., 20° C. ± 1° C.): >10^5 in 5 min. | contact time after which pass was achieved [12, 21]: 15 s | Test Result (Log reduction) ([12]; in 5 min., 20° C. ± 1° C.): >10^5 in 5 min. | contact time after which pass was achieved [13, 21]: 15 s | Test Result (Log reduction) ([13]; in 5 min., 20° C. ± 1° C.): >10^5 in 5 min. | contact time after which pass was achieved [14, 21]: 15 s | Test Result (Log reduction) ([14]; in 5 min., 20° C. ± 1° C.): >10^5 in 5 min. | contact time after which pass was achieved [15, 21]: 15 min | Test Result (Log reduction) ([15]; in 15 min., 20° C. ± 1° C.): >10^4 in 15 min. | contact time after which pass was achieved (Poliovirus Enterovirus 1; [21]): 15 min | Test Result (Log reduction) (Poliovirus Enterovirus 1; in 15 min., 20° C. ± 1° C.): >10^4 in 15 min. | Time to achieve pass [16]: 5 min | Time to achieve pass (Salmonella choleraesuis): 2 min | ocular irritation [17]: no ocular irritation | dermal irritation [18]: no dermal irritation | delayed dermal contact sensitization [19]: no evidence of causing a delayed dermal contact sensitization | mutagenic activity [20]: No evidence of mutagenic activity

Source: patent US10632147B2, “Methods and compositions for treating inflammatory disorders” (priority 2007, dated 2020)
